According to US10758534B2 (Vertex Pharmaceuticals Incorporated, priority 2014, dated 2020):

Target: T1, F508del (Homo sapiens, UniProt P13569, DEL508-508)
T1 construct: expressed in transfected cells
Experiment: Protocol 2: FRET membrane potential optical assay (VIPR), identification of correction compounds
Type: cell-based
Conditions: F508del CFTR modulator activity; compounds of Table 1; read-out: EC30
How it was run: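 FRET read-out (CC2-DMPE donor, DiSBAC2(3) voltage-sensitive acceptor) of membrane depolarization on VIPR II. Corrector candidates incubated 16 hrs at 37° C. with NIH3T3 cells expressing F508del; temperature correction at 27° C. as positive control; stimulation by 10 μM forskolin, 20 μM genistein, chloride-free gluconate bath.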

T1 sequence (P13569 with tags, fused parts or gaps DEL508-508): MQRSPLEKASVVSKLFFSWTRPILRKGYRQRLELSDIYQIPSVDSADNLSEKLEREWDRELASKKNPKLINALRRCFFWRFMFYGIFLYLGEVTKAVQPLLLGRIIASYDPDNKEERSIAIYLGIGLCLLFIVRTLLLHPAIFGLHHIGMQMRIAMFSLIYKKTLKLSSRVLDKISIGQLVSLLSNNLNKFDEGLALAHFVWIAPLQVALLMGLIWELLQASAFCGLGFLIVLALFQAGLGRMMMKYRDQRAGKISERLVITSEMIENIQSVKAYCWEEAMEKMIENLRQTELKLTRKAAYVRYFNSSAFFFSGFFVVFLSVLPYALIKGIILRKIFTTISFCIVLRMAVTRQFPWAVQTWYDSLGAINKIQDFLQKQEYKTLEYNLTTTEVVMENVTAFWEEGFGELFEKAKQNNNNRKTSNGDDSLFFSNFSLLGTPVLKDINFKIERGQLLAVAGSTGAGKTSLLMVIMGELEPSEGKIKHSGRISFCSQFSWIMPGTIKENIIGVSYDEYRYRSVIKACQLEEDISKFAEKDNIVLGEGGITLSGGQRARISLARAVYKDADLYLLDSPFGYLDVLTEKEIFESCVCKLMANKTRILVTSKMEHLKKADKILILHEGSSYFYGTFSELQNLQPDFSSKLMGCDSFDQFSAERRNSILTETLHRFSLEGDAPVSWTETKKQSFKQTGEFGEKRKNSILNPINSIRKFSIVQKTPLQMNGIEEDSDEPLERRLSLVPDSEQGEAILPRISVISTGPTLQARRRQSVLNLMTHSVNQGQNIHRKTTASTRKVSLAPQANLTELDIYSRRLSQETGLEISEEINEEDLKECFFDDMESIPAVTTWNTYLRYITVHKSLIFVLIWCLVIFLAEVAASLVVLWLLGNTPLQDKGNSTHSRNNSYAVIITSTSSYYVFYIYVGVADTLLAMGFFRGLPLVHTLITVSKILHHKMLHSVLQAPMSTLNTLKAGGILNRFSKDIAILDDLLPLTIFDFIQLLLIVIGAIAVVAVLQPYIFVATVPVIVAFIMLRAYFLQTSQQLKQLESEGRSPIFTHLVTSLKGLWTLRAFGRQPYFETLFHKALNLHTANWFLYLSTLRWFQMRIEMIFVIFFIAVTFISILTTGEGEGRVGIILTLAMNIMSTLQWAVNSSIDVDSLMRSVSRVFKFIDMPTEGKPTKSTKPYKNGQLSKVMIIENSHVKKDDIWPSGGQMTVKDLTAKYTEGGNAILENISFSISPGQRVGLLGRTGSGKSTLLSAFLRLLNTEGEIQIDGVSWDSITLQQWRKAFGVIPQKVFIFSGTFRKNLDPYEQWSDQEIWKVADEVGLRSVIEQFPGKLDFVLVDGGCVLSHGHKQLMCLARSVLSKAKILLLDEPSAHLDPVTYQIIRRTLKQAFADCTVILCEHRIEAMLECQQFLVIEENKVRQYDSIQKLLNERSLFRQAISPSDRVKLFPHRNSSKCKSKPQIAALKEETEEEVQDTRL

Compound	EC30
Cc1cccc(-c2ccc(C(=O)NS(=O)(=O)c3ccc[nH]c3=O)c(N3C[C@@H](C)CC3(C)C)n2)c1C [Compound 2073, 6-(2,3-dimethylphenyl)-N-[(2-oxo-1H-pyridin-3-yl)sulfonyl]-2-[(4S)-2,2,4-trimethylpyrrolidin-1-yl]pyridine-3-carboxamide]	< 3000 nM
CC1CN(c2ncccc2C(=O)NS(=O)(=O)c2cccc(Nc3cccc4ncccc34)n2)C(C)(C)C1 (stereo not drawn) [Compound 2074, N—[[6-(5-quinolylamino)-2-pyridyl]sulfonyl]-2-(2,2,4-trimethylpyrrolidin-1-yl)pyridine-3-carboxamide]	3000 to 10000 nM
CC(C)CCOc1cccc(S(=O)(=O)NC(=O)c2cccnc2N2CC(C)CC2(C)C)n1 (stereo not drawn) [Compound 2075, N-[(6-isopentyloxy-2-pyridyl)sulfonyl]-2-(2,2,4-trimethylpyrrolidin-1-yl)pyridine-3-carboxamide]	< 3000 nM
CC1CN(c2ncccc2C(=O)NS(=O)(=O)c2cccc(Oc3ccc(C#N)cc3)n2)C(C)(C)C1 (stereo not drawn) [Compound 2076, N—[[6-(4-cyanophenoxy)-2-pyridyl]sulfonyl]-2-(2,2,4-trimethylpyrrolidin-1-yl)pyridine-3-carboxamide]	< 3000 nM
CC1CN(c2ncccc2C(=O)NS(=O)(=O)c2cccc(O[C@H]3CCN(Cc4ccccc4)C3)n2)C(C)(C)C1 (stereo partly drawn) [Compound 2078, N—[[6-[(3S)-1-benzylpyrrolidin-3-yl]oxy-2-pyridyl]sulfonyl]-2-(2,2,4-trimethylpyrrolidin-1-yl)pyridine-3-carboxamide]	3000 to 10000 nM
Cc1cc(-c2ccc(C(=O)NS(=O)(=O)c3cccc(N)n3)c(N3C[C@@H](C)CC3(C)C)n2)cc(OCCOC(C)C)n1 [Compound 2079, N-[(6-amino-2-pyridyl)sulfonyl]-6-[2-(2-isopropoxyethoxy)-6-methyl-4-pyridyl]-2-[(4S)-2,2,4-trimethylpyrrolidin-1-yl]pyridine-3-carboxamide]	< 3000 nM
COc1ccc(-c2ccc(C(=O)NS(=O)(=O)c3ccc[nH]c3=O)c(N3C[C@@H](C)CC3(C)C)n2)cc1 [Compound 2080, 6-(4-methoxyphenyl)-N-[(2-oxo-1H-pyridin-3-yl)sulfonyl]-2-[(4S)-2,2,4-trimethylpyrrolidin-1-yl]pyridine-3-carboxamide]	3000 to 10000 nM
Cc1ccnc(Nc2cccc(S(=O)(=O)NC(=O)c3cccnc3N3CC(C)CC3(C)C)n2)c1 (stereo not drawn) [Compound 2082, N—[[6-[(4-methyl-2-pyridyl)amino]-2-pyridyl]sulfonyl]-2-(2,2,4-trimethylpyrrolidin-1-yl)pyridine-3-carboxamide]	3000 to 10000 nM
CC1CN(c2ncccc2C(=O)NS(=O)(=O)c2cccc(Oc3ccccc3C(C)(C)C)n2)C(C)(C)C1 (stereo not drawn) [Compound 2083, N—[[6-(2-tert-butylphenoxy)-2-pyridyl]sulfonyl]-2-(2,2,4-trimethylpyrrolidin-1-yl)pyridine-3-carboxamide]	< 3000 nM
Cc1ccc(-c2ccc(C(=O)NS(=O)(=O)c3ccc[nH]c3=O)c(N3C[C@@H](C)CC3(C)C)n2)cc1F [Compound 2084, 6-(3-fluoro-4-methyl-phenyl)-N-[(2-oxo-1H-pyridin-3-yl)sulfonyl]-2-[(4S)-2,2,4-trimethylpyrrolidin-1-yl]pyridine-3-carboxamide]	< 3000 nM
CCCOc1ccc(C)cc1-c1ccc(C(=O)NS(=O)(=O)c2cccc(N)n2)c(N2C[C@@H](C)CC2(C)C)n1 [Compound 2085, N-[(6-amino-2-pyridyl)sulfonyl]-6-(5-methyl-2-propoxy-phenyl)-2-[(4S)-2,2,4-trimethylpyrrolidin-1-yl]pyridine-3-carboxamide]	< 3000 nM
COc1ncc(-c2ccc(C(=O)NS(=O)(=O)c3cccc(N)n3)c(N3C[C@@H](C)CC3(C)C)n2)cc1C [Compound 2086, N-[(6-amino-2-pyridyl)sulfonyl]-6-(6-methoxy-5-methyl-3-pyridyl)-2-[(4S)-2,2,4-trimethylpyrrolidin-1-yl]pyridine-3-carboxamide]	< 3000 nM
CC1CN(c2ncccc2C(=O)NS(=O)(=O)c2cccc(Nc3ccc(N4CCCCC4)cc3)n2)C(C)(C)C1 (stereo not drawn) [Compound 2087, N—[[6-[4-(1-piperidyl)anilino]-2-pyridyl]sulfonyl]-2-(2,2,4-trimethylpyrrolidin-1-yl)pyridine-3-carboxamide]	< 3000 nM
CC1CN(c2ncc(-c3ccc(CO)cc3)cc2C(=O)NS(=O)(=O)c2cccc(N)n2)C(C)(C)C1 (stereo not drawn) [Compound 2088, N-[(6-amino-2-pyridyl)sulfonyl]-5-[4-(hydroxymethyl)phenyl]-2-(2,2,4-trimethylpyrrolidin-1-yl)pyridine-3-carboxamide]	3000 to 10000 nM
CC(C)COc1cccc(-c2cnc(N3CC(C)CC3(C)C)c(C(=O)NS(=O)(=O)c3cccc(N)n3)c2)c1 (stereo not drawn) [Compound 2089, N-[(6-amino-2-pyridyl)sulfonyl]-5-(3-isobutoxyphenyl)-2-(2,2,4-trimethylpyrrolidin-1-yl)pyridine-3-carboxamide]	< 3000 nM
COc1ccccc1CN(C)c1cccc(S(=O)(=O)NC(=O)c2cccnc2N2CC(C)CC2(C)C)n1 (stereo not drawn) [Compound 2090, N—[[6-[(2-methoxyphenyl)methyl-methyl-amino]-2-pyridyl]sulfonyl]-2-(2,2,4-trimethylpyrrolidin-1-yl)pyridine-3-carboxamide]	< 3000 nM
COc1ccc(-c2ccc(C(=O)NS(=O)(=O)c3cccnc3N)c(N3C[C@@H](C)CC3(C)C)n2)c(OC)n1 [Compound 2091, N-[(2-amino-3-pyridyl)sulfonyl]-6-(2,6-dimethoxy-3-pyridyl)-2-[(4S)-2,2,4-trimethylpyrrolidin-1-yl]pyridine-3-carboxamide]	< 3000 nM
C[C@@H]1CN(c2nc(-c3ccccc3)ccc2C(=O)NS(=O)(=O)c2ccccc2)C(C)(C)C1 [Compound 2092, N-(benzenesulfonyl)-6-phenyl-2-[(4S)-2,2,4-trimethylpyrrolidin-1-yl]pyridine-3-carboxamide]	< 3000 nM
Cc1cc(C)cc(-c2cnc(N3CC(C)CC3(C)C)c(C(=O)NS(=O)(=O)c3cccc(N)n3)c2)c1 (stereo not drawn) [Compound 2093, N-[(6-amino-2-pyridyl)sulfonyl]-5-(3,5-dimethylphenyl)-2-(2,2,4-trimethylpyrrolidin-1-yl)pyridine-3-carboxamide]	< 3000 nM
CC1CN(c2ncccc2C(=O)NS(=O)(=O)c2cccc(N3CCCC3c3ccccc3)n2)C(C)(C)C1 (stereo not drawn) [Compound 2094, N—[[6-(2-phenylpyrrolidin-1-yl)-2-pyridyl]sulfonyl]-2-(2,2,4-trimethylpyrrolidin-1-yl)pyridine-3-carboxamide]	< 3000 nM
CCCOc1ccc(-c2cnc(N3CC(C)CC3(C)C)c(C(=O)NS(=O)(=O)c3cccc(N)n3)c2)cc1C (stereo not drawn) [Compound 2095, N-[(6-amino-2-pyridyl)sulfonyl]-5-(3-methyl-4-propoxy-phenyl)-2-(2,2,4-trimethylpyrrolidin-1-yl)pyridine-3-carboxamide]	< 3000 nM
C[C@@H]1CN(c2nc(-c3ccc(C#N)cc3)ccc2C(=O)NS(=O)(=O)c2cccnc2N)C(C)(C)C1 [Compound 2096, N-[(2-amino-3-pyridyl)sulfonyl]-6-(4-cyanophenyl)-2-[(4S)-2,2,4-trimethylpyrrolidin-1-yl]pyridine-3-carboxamide]	< 3000 nM
C[C@@H]1CN(c2nc(C3CC4CCC3C4)ccc2C(=O)NS(=O)(=O)c2cccnc2N)C(C)(C)C1 (stereo partly drawn) [Compound 2097, N-[(2-amino-3-pyridyl)sulfonyl]-6-norbornan-2-yl-2-[(4S)-2,2,4-trimethylpyrrolidin-1-yl]pyridine-3-carboxamide]	< 3000 nM
CC1CN(c2ncccc2C(=O)NS(=O)(=O)c2cccc(N3CCc4ccccc4C3)n2)C(C)(C)C1 (stereo not drawn) [Compound 2098, N—[[6-(3,4-dihydro-1H-isoquinolin-2-yl)-2-pyridyl]sulfonyl]-2-(2,2,4-trimethylpyrrolidin-1-yl)pyridine-3-carboxamide]	< 3000 nM
CC1CN(c2ncccc2C(=O)NS(=O)(=O)c2cccc(OCc3ccc(F)cc3F)n2)C(C)(C)C1 (stereo not drawn) [Compound 2099, N—[[6-[(2,4-difluorophenyl)methoxy]-2-pyridyl]sulfonyl]-2-(2,2,4-trimethylpyrrolidin-1-yl)pyridine-3-carboxamide]	< 3000 nM
C[C@@H]1CN(c2nc(OC3CCCC3)c(F)cc2C(=O)NS(=O)(=O)c2cccc(N)n2)C(C)(C)C1 [Compound 2100, N-[(6-amino-2-pyridyl)sulfonyl]-6-(cyclopentoxy)-5-fluoro-2-[(4S)-2,2,4-trimethylpyrrolidin-1-yl]pyridine-3-carboxamide]	< 3000 nM
COc1cccc(-c2ccc(C(=O)NS(=O)(=O)c3ccc[nH]c3=O)c(N3C[C@@H](C)CC3(C)C)n2)n1 [Compound 2101, 6-(6-methoxy-2-pyridyl)-N-[(2-oxo-1H-pyridin-3-yl)sulfonyl]-2-[(4S)-2,2,4-trimethylpyrrolidin-1-yl]pyridine-3-carboxamide]	< 3000 nM
CC1CN(c2ncccc2C(=O)NS(=O)(=O)c2cccc(Nc3ccc(F)cc3)n2)C(C)(C)C1 (stereo not drawn) [Compound 2102, N—[[6-(4-fluoroanilino)-2-pyridyl]sulfonyl]-2-(2,2,4-trimethylpyrrolidin-1-yl)pyridine-3-carboxamide]	< 3000 nM
CCOc1cccc(F)c1-c1ccc(C(=O)NS(=O)(=O)c2cccnc2N)c(N2C[C@@H](C)CC2(C)C)n1 [Compound 2103, N-[(2-amino-3-pyridyl)sulfonyl]-6-(2-ethoxy-6-fluoro-phenyl)-2-[(4S)-2,2,4-trimethylpyrrolidin-1-yl]pyridine-3-carboxamide]	< 3000 nM
C[C@@H]1CN(c2nc(-c3ccc4c(c3)OC(F)(F)O4)ccc2C(=O)NS(=O)(=O)c2cccc(N)n2)C(C)(C)C1 [Compound 2104, N-[(6-amino-2-pyridyl)sulfonyl]-6-(2,2-difluoro-1,3-benzodioxol-5-yl)-2-[(4S)-2,2,4-trimethylpyrrolidin-1-yl]pyridine-3-carboxamide]	< 3000 nM
